Experimental findings from patent US7879835B2 (Korea Research Institute of Chemical Technology, priority 2004, dated 2011) are described below.

Structures are written as SMILES.

Assay [1] has as its system osteoclast (TRAP-positive multinuclear cell) formation. Kind of assay: Inhibitory effect on osteoclast formation (TRAP staining). The class given is cell-based, mice. The conditions noted are these: compared to control; for inhibition at 0.3 µM / inhibition at 1 µM / inhibition at 3 µM / inhibition at 0.1 µM: Mus musculus, Osteoclast, read-out: Osteoclast formation inhibitory effects (%); for inhibition at 0.3 µM: 0.3 μM (Table 4b); for inhibition at 1 µM: 1 μM (Table 4b); for inhibition at 3 µM: 3 μM (Table 4b); for Osteoclast formation inhibitory effects (%): 8 days culture with M-CSF and RANKL; for inhibition at 0.1 µM: 0.1 μM (Table 4b). The method, then: The inhibitory activities of the alpha-arylmethoxyacrylate derivatives prepared in the above Examples on the proliferation of osteoclasts were examined as follows.
First, a bone marrow sample containing osteoclast pregenitor cells was isolated as follows. After sacrificing 7 to 9 week-old female mice by cervical dislocation, femur and tibia were excised aseptically while removing soft tissues attached thereto, After cutting both ends of the long bones, 1 ml of an enzyme solution containing 0.1% collagenase (Gibco), 0.05% trypsin and 0.5 mM EDTA (Gibco) was injected into the bone marrow cavity at one end using a syringe with a 26-gauge needle, and the bone marrow was then collected. After stirring the recovered bone marrow for 30 min, the precipitated bone marrow cells were collected, and cultured in α-minimum essential medium (α-MEM) supplemented with 10% FBS for 24 hrs. Then, non-adherent cells, which are osteoclast pregenitors, were aliquoted onto a culture plate at a density of 2×10^5 cells per well, and cultured for 8 days in α-MEM supplemented with 20 ng/ml of macrophage-colony stimulating factor (M-CSF, Peprotech, USA), 30 ng/ml RANKL (Peprotech, USA), and 0.3, 1.0 or 3 μM of the compounds of the Examples. Control cells were cultured at the same condition except not adding the compounds of the Examples.
After cell culture for 8 days, the adherent cells were washed with PBS and fixed with citrate-acetate-formaldehyde for 5 min. The fixed cells were incubated at 37° C. for 1 hr in acetate buffer (pH 5.0) containing naphthol AS-BI phosphate, fast Garnet GBC solution and 7 mM tartrate buffer (pH 5.0) to conduct TRAP (tartrate-resistant acid phosphatase) staining.

Assay [2] deals with osteoclasts. As to the kind of experiment: Inhibitory effect on resorption activity of osteoclast (resorption pit area on calcium phosphate-coated plate). The conditions noted are these: compared to control. The class given is cell-based, mice. The method, then: After finishing culture, the plate was washed with distilled water, and 50 μl/well of 5% sodium hypochlorite was added to the plate. The plate was let alone for 5 min, washed again with distilled water to remove the adherent cells, and dried at room temperature. Then, the area of formed resorption pits was calculated by means of Image Pro Plus software (Media Cybernetics Ver. 3.0).

On to `CO/C=C(/C(=O)OC)c1ccccc1COc1ccc(N2CCCC2)c(F)c1` [compound 418], for which, in assay [1], the inhibition at 0.3 µM was determined as 11%, the inhibition at 1 µM was determined as 81% and the inhibition at 3 µM amounted to 100%.
In the case of `C=CCNc1cccc(OCc2ccccc2/C(=C\OC)C(=O)OC)c1` [compound 381], in assay [1], the inhibition at 0.3 µM was determined as 5%, the inhibition at 1 µM amounted to 67% and the inhibition at 3 µM came out at 100%.
Take `CO/C=C(/C(=O)OC)c1ccccc1COc1ccc(C(C)F)cc1` (stereo not shown) [compound 170]: the figures for the “Osteoclast formation inhibitory effects (%)” value in assay [1] (0.3 μM), in assay [1] (1.0 μM) and in assay [1] (3.0 μM) were 81%, 100% and 100%, respectively. Besides, the “Reduction (%) of the resorption pit area of osteoclasts” value (from here on “Reduction (%)”) in assay [2] (0.3 uM) is 0%; in assay [2] (1 uM), 100%; in assay [2] (3 uM), 100%.
Turning to `CO/C=C(/C(=O)OC)c1ccccc1COc1cccc(NC2CCCC2)c1` [compound 380], in assay [1], the inhibition at 0.3 µM was determined as 8%, the inhibition at 1 µM came out at 51% and the inhibition at 3 µM was 100%.
In the case of `CO/C=C(/C(=O)OC)c1ccccc1COc1ccc(N(CC2CC2)CC2CC2)cc1F` [compound 422], in assay [1], the inhibition at 0.1 µM was 11%, the inhibition at 0.3 µM worked out at 98%, the inhibition at 1 µM came to 100% and the inhibition at 3 µM worked out at 100%.
Turning to `CCCCCCCCc1cccc(OCc2ccccc2/C(=C\OC)C(=O)OC)c1` [compound 229], the “Osteoclast formation inhibitory effects (%)” value in assay [1] (0.3 μM), in assay [1] (1.0 μM) and in assay [1] (3.0 μM) was 100% throughout. Moreover, the entries for the “Reduction (%)” value in assay [2] (0.3 uM), in assay [2] (1 uM) and in assay [2] (3 uM) were 0.00%, 100% and 100%, respectively.
Take `CO/C=C(/C(=O)OC)c1ccccc1COc1ccc(N(C)c2ccccc2)cc1` [compound 400]: in assay [1], the inhibition at 0.1 µM was 0%, the inhibition at 0.3 µM stood at 53%, the inhibition at 1 µM stood at 99% and the inhibition at 3 µM came out at 100%.
With `CO/C=C(/C(=O)OC)c1ccccc1COc1ccc(N(C)c2ccccc2)c(F)c1` [compound 417], in assay [1], the inhibition at 0.3 µM is 24%, the inhibition at 1 µM stood at 97% and the inhibition at 3 µM was 100%.
`CCC(C)Oc1ccc(OCc2ccccc2/C(=C\OC)C(=O)OC)cc1` (stereo not shown) [compound 175]: the “Osteoclast formation inhibitory effects (%)” value is on record as 14% in assay [1] (0.3 μM), 100% in assay [1] (1.0 μM) and 100% in assay [1] (3.0 μM). For the same compound, the “Reduction (%)” value in assay [2] (0.3 uM) was 99%; in assay [2] (1 uM), 100%; in assay [2] (3 uM) it was 100%.
Turning to `CO/C=C(/C(=O)OC)c1ccccc1COc1ccc(N2CCCC2)cn1` [compound 397], in assay [1], the inhibition at 0.3 µM was 22%, the inhibition at 1 µM came to 100% and the inhibition at 3 µM came out at 100%.
Turning to `CO/C=C(/C(=O)OC)c1ccccc1COc1cccc(N2CCCC2)c1` [compound 392], in assay [1], the inhibition at 0.3 µM is 2%, the inhibition at 1 µM was found to be 95% and the inhibition at 3 µM is 100%.
Turning to `CCCOc1ccc(OCc2ccccc2/C(=C\OC)C(=O)OC)cc1` [compound 192], the figures for the “Osteoclast formation inhibitory effects (%)” value in assay [1] (0.3 μM), in assay [1] (1.0 μM) and in assay [1] (3.0 μM) were 68%, 100% and 100%, respectively. For the same compound, the “Reduction (%)” value in assay [2] (0.3 uM), in assay [2] (1 uM) and in assay [2] (3 uM) was 100% each time.
As for `C=CCCOc1ccc(OCc2ccccc2/C(=C\OC)C(=O)OC)cc1` [compound 178], the “Osteoclast formation inhibitory effects (%)” value in assay [1] (0.3 μM) is 89%; in assay [1] (1.0 μM) it was 100%; in assay [1] (3.0 μM) it was 100%. The “Reduction (%)” value turned out to be 97% in assay [2] (0.3 uM), 100% in assay [2] (1 uM) and 100% in assay [2] (3 uM).
For the compound `CO/C=C(/C(=O)OC)c1ccccc1COc1cccc(N(C)c2ccccc2)n1` [compound 414], in assay [1], the inhibition at 0.3 µM worked out at 32%, the inhibition at 1 µM worked out at 100% and the inhibition at 3 µM was 100%.
With `CO/C=C(/C(=O)OC)c1ccccc1COc1cccc(N2CCOCC2)n1` [compound 348], in assay [1], the inhibition at 0.3 µM stood at 24%, the inhibition at 1 µM stood at 99% and the inhibition at 3 µM came out at 100%.
For the compound `CO/C=C(/C(=O)OC)c1ccccc1COc1ccc(N(C)CC2CC2)cc1F` [compound 424], in assay [1], the inhibition at 0.1 µM stood at 0%, the inhibition at 0.3 µM came to 92%, the inhibition at 1 µM amounted to 100% and the inhibition at 3 µM was determined as 100%.
In the case of `CO/C=C(/C(=O)OC)c1ccccc1COc1ccc(NCC2CC2)c(F)c1` [compound 372], in assay [1], the inhibition at 1 µM amounted to 91% and the inhibition at 3 µM worked out at 100%.
Regarding `CO/C=C(/C(=O)OC)c1ccc(Cl)cc1COc1cccc(N(C)c2ccccc2)c1` [compound 390], in assay [1], the inhibition at 0.1 µM was 2%, the inhibition at 0.3 µM is 94%, the inhibition at 1 µM worked out at 99% and the inhibition at 3 µM stood at 100%.
Regarding `CO/C=C(/C(=O)OC)c1ccccc1COc1cccc(N2CCOCC2)c1` [compound 349], in assay [1], the inhibition at 0.1 µM was 2%, the inhibition at 0.3 µM was 53%, the inhibition at 1 µM is 100% and the inhibition at 3 µM stood at 100%.
Take `CO/C=C(/C(=O)OC)c1ccc(Cl)cc1COc1cccc(N2CCCCC2)c1` [compound 387]: in assay [1], the inhibition at 0.1 µM came to 1%, the inhibition at 0.3 µM was determined as 100%, the inhibition at 1 µM was determined as 100% and the inhibition at 3 µM is 100%.
Take `CO/C=C(/C(=O)OC)c1ccccc1COc1cccc(NCCC(C)C)c1` [compound 383]: in assay [1], the inhibition at 0.3 µM was found to be 6%, the inhibition at 1 µM was determined as 94% and the inhibition at 3 µM was 100%.
As to `CO/C=C(/C(=O)OC)c1ccccc1COc1ccc(NCC(C)C)cc1` [compound 361], in assay [1], the inhibition at 1 µM was 95% and the inhibition at 3 µM amounted to 100%.
As to `C=CCN(CC=C)c1ccc(OCc2ccccc2/C(=C\OC)C(=O)OC)cc1F` [compound 367], in assay [1], the inhibition at 1 µM amounted to 87% and the inhibition at 3 µM amounted to 100%.
With `C=CCN(CC=C)c1ccc(OCc2ccccc2/C(=C\OC)C(=O)OC)c(F)c1` [compound 421], in assay [1], the inhibition at 0.3 µM is 14%, the inhibition at 1 µM was 100% and the inhibition at 3 µM is 100%.
As for `CO/C=C(/C(=O)OC)c1ccccc1COc1cccc(N2CCN(C(=O)OC(C)(C)C)CC2)c1` [compound 406], in assay [1], the inhibition at 0.1 µM turned out to be 41%, the inhibition at 0.3 µM amounted to 100%, the inhibition at 1 µM was 100% and the inhibition at 3 µM was found to be 100%.
`CO/C=C(/C(=O)OC)c1ccccc1COc1ccc(NCC(C)C)cc1F` [Compound No. 425, (E)-methyl-2-[2-((4-(N-isobutylamino)-2-fluorophenoxy)methyl)phenyl]-3-methoxyacrylate]: in assay [1], the inhibition at 0.1 µM was 0%, the inhibition at 0.3 µM turned out to be 51%, the inhibition at 1 µM was 100% and the inhibition at 3 µM came to 100%.
As to `CO/C=C(/C(=O)OC)c1ccccc1COc1ccc(N2CCOCC2)cc1F` [compound 408], in assay [1], the inhibition at 0.1 µM was found to be 0%, the inhibition at 0.3 µM came out at 52%, the inhibition at 1 µM came out at 100% and the inhibition at 3 µM worked out at 100%.
As to `CO/C=C(/C(=O)OC)c1ccccc1COc1ccc(NCC2CC2)cc1F` [compound 423], in assay [1], the inhibition at 0.1 µM is 0%, the inhibition at 0.3 µM came out at 51%, the inhibition at 1 µM amounted to 100% and the inhibition at 3 µM came to 100%.
As to `CO/C=C(/C(=O)OC)c1ccccc1COc1cccc(N2CCCCC2)n1` [compound 413], in assay [1], the inhibition at 0.3 µM is 11%, the inhibition at 1 µM was 100% and the inhibition at 3 µM was 100%.
